Measurements as given in the supplement of paper PMC11451515.

Test system: SEM cells
Assay: cell viability relative to DMSO control; higher = less cytotoxic
Details: 48 h
Outline: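 Cells were incubated for 48 h at 37°C before CellTiter-Glo One luminescence was read. The cells were NOMO1 or SEM (500 cells/well) or P12-Ichikawa (1000 cells/well) leukemia cells, adapted for at least four passages in each medium and seeded in 1536-well plates (5 μl). Dosing used library compounds in DMSO applied by pin over 11 threefold points, 47 μM to 0.79 nM. Viability is the per-plate percentage of DMSO wells, with cell-free wells as background.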

[1] = HPLM + 10% dialyzed FBS, 0.000781 µM
[2] = HPLM + 10% dialyzed FBS, 0.00234 µM
[3] = HPLM + 10% dialyzed FBS, 0.00702 µM
[4] = HPLM + 10% dialyzed FBS, 0.0211 µM
[5] = HPLM + 10% dialyzed FBS, 0.0632 µM
[6] = HPLM + 10% dialyzed FBS, 0.19 µM
[7] = HPLM + 10% dialyzed FBS, 0.569 µM
[8] = HPLM + 10% dialyzed FBS, 1.71 µM
[9] = HPLM + 10% dialyzed FBS, 5.12 µM
[10] = HPLM + 10% dialyzed FBS, 15.4 µM
[11] = HPLM + 10% dialyzed FBS, 46.1 µM
[12] = RPMI 5 mM glucose + 10% FBS, 0.000781 µM
[13] = RPMI 5 mM glucose + 10% FBS, 0.00234 µM
[14] = RPMI 5 mM glucose + 10% FBS, 0.00702 µM
[15] = RPMI 5 mM glucose + 10% FBS, 0.0211 µM
[16] = RPMI 5 mM glucose + 10% FBS, 0.0632 µM
[17] = RPMI 5 mM glucose + 10% FBS, 0.19 µM
[18] = RPMI 5 mM glucose + 10% FBS, 0.569 µM
[19] = RPMI 5 mM glucose + 10% FBS, 1.71 µM
[20] = RPMI 5 mM glucose + 10% FBS, 5.12 µM
[21] = RPMI 5 mM glucose + 10% FBS, 15.4 µM
[22] = RPMI 5 mM glucose + 10% FBS, 46.1 µM
[23] = RPMI 5 mM glucose + 10% dialyzed FBS, 0.000781 µM
[24] = RPMI 5 mM glucose + 10% dialyzed FBS, 0.00234 µM
[25] = RPMI 5 mM glucose + 10% dialyzed FBS, 0.00702 µM
[26] = RPMI 5 mM glucose + 10% dialyzed FBS, 0.0211 µM
[27] = RPMI 5 mM glucose + 10% dialyzed FBS, 0.0632 µM
[28] = RPMI 5 mM glucose + 10% dialyzed FBS, 0.19 µM
[29] = RPMI 5 mM glucose + 10% dialyzed FBS, 0.569 µM
[30] = RPMI 5 mM glucose + 10% dialyzed FBS, 1.71 µM
[31] = RPMI 5 mM glucose + 10% dialyzed FBS, 5.12 µM
[32] = RPMI 5 mM glucose + 10% dialyzed FBS, 15.4 µM
[33] = RPMI 5 mM glucose + 10% dialyzed FBS, 46.1 µM

## O=C(c1ccc(F)cc1)N1CCC[C@H](c2nc(-c3ccc(F)cc3)no2)C1
[1]
  cell viability: 119%
[2]
  cell viability: 120%
[3]
  cell viability: 122%
[4]
  cell viability: 112%
[5]
  cell viability: 128%
[6]
  cell viability: 114%
[7]
  cell viability: 111%
[8]
  cell viability: 104%
[9]
  cell viability: 102%
[10]
  cell viability: 105%
[11]
  cell viability: 115%
[12]
  cell viability: 119%
[13]
  cell viability: 111%
[14]
  cell viability: 124%
[15]
  cell viability: 121%
[16]
  cell viability: 128%
[17]
  cell viability: 117%
[18]
  cell viability: 111%
[19]
  cell viability: 112%
[20]
  cell viability: 99.4%
[21]
  cell viability: 106%
[22]
  cell viability: 116%
[23]
  cell viability: 104%
[24]
  cell viability: 103%
[25]
  cell viability: 130%
[26]
  cell viability: 125%
[27]
  cell viability: 105%
[28]
  cell viability: 116%
[29]
  cell viability: 118%
[30]
  cell viability: 113%
[31]
  cell viability: 102%
[32]
  cell viability: 101%
[33]
  cell viability: 128%

## Cc1coc2c1C(=O)C(=O)c1c-2ccc2c(C)cccc12
[12]
  cell viability: 91.4%
[13]
  cell viability: 79.7%
[14]
  cell viability: 107%
[15]
  cell viability: 12.8%
[16]
  cell viability: 91.3%
[17]
  cell viability: 80.1%
[18]
  cell viability: 90.3%
[19]
  cell viability: 78%
[20]
  cell viability: 72.8%
[21]
  cell viability: 54%
[22]
  cell viability: 48.6%
[23]
  cell viability: 112%
[24]
  cell viability: 117%
[25]
  cell viability: 135%
[26]
  cell viability: 19.3%
[27]
  cell viability: 112%
[28]
  cell viability: 115%
[29]
  cell viability: 98%
[30]
  cell viability: 102%
[31]
  cell viability: 106%
[32]
  cell viability: 86.4%
[33]
  cell viability: 75.3%

## CCC1(c2ccccc2)C(=O)NCNC1=O
[1]
  cell viability: 94.6%
[2]
  cell viability: 104%
[3]
  cell viability: 105%
[4]
  cell viability: 78.7%
[5]
  cell viability: 102%
[6]
  cell viability: 110%
[7]
  cell viability: 114%
[8]
  cell viability: 117%
[9]
  cell viability: 116%
[10]
  cell viability: 106%
[11]
  cell viability: 122%
[12]
  cell viability: 100%
[13]
  cell viability: 112%
[14]
  cell viability: 108%
[15]
  cell viability: 76.1%
[16]
  cell viability: 106%
[17]
  cell viability: 109%
[18]
  cell viability: 108%
[19]
  cell viability: 103%
[20]
  cell viability: 116%
[21]
  cell viability: 113%
[22]
  cell viability: 117%
[23]
  cell viability: 91.6%
[24]
  cell viability: 115%
[25]
  cell viability: 123%
[26]
  cell viability: 84.4%
[27]
  cell viability: 108%
[28]
  cell viability: 120%
[29]
  cell viability: 117%
[30]
  cell viability: 115%
[31]
  cell viability: 114%
[32]
  cell viability: 117%
[33]
  cell viability: 109%

## FC1=C(C=C(C\C2=N\NC(=O)C3=C2C=CC=C3)C=C1)C(=O)N4CCN(CC4)C(=O)C5CC5
[1]
  cell viability: 80.9%
[2]
  cell viability: 84%
[3]
  cell viability: 100%
[4]
  cell viability: 99%
[5]
  cell viability: 97%
[6]
  cell viability: 94.9%
[7]
  cell viability: 85.7%
[8]
  cell viability: 91.6%
[9]
  cell viability: 86.5%
[10]
  cell viability: 19.7%
[11]
  cell viability: 41.1%
[12]
  cell viability: 94.7%
[13]
  cell viability: 95.8%
[14]
  cell viability: 103%
[15]
  cell viability: 109%
[16]
  cell viability: 107%
[17]
  cell viability: 105%
[18]
  cell viability: 92.8%
[19]
  cell viability: 87.1%
[20]
  cell viability: 76.3%
[21]
  cell viability: 13.1%
[22]
  cell viability: 26.5%
[23]
  cell viability: 71.6%
[24]
  cell viability: 79%
[25]
  cell viability: 92%
[26]
  cell viability: 70.5%
[27]
  cell viability: 77.7%
[28]
  cell viability: 81.3%
[29]
  cell viability: 74.8%
[30]
  cell viability: 78.2%
[31]
  cell viability: 62.4%
[32]
  cell viability: 17.5%
[33]
  cell viability: 24.8%

## CC(C)N[C@@H]1CCn2c(=O)[nH]c3cccc(c32)[C@H]1O
[1]
  cell viability: 107%
[2]
  cell viability: 119%
[3]
  cell viability: 101%
[4]
  cell viability: 104%
[5]
  cell viability: 112%
[6]
  cell viability: 108%
[7]
  cell viability: 120%
[8]
  cell viability: 112%
[9]
  cell viability: 122%
[10]
  cell viability: 122%
[11]
  cell viability: 100%
[23]
  cell viability: 102%
[24]
  cell viability: 112%
[25]
  cell viability: 113%
[26]
  cell viability: 122%
[27]
  cell viability: 125%
[28]
  cell viability: 123%
[29]
  cell viability: 107%
[30]
  cell viability: 117%
[31]
  cell viability: 101%
[32]
  cell viability: 125%
[33]
  cell viability: 102%

## NC1=C(Cl)C(=CC=N1)OC2=C(F)C=C(NC(=O)\C3=C\N\C=C(C3=O)\C4=CC=C(F)C=C4)C=C2
[1]
  cell viability: 118%
[2]
  cell viability: 107%
[3]
  cell viability: 121%
[4]
  cell viability: 72.2%
[5]
  cell viability: 92.6%
[6]
  cell viability: 72.6%
[7]
  cell viability: 64.4%
[8]
  cell viability: 64%
[9]
  cell viability: 58.8%
[10]
  cell viability: 64.1%
[11]
  cell viability: 11.5%
[12]
  cell viability: 129%
[13]
  cell viability: 113%
[14]
  cell viability: 115%
[15]
  cell viability: 79.2%
[16]
  cell viability: 76%
[17]
  cell viability: 70.5%
[18]
  cell viability: 65.3%
[19]
  cell viability: 76.2%
[20]
  cell viability: 49%
[21]
  cell viability: 46.7%
[22]
  cell viability: 3.66%
[23]
  cell viability: 140%
[24]
  cell viability: 103%
[25]
  cell viability: 115%
[26]
  cell viability: 65.7%
[27]
  cell viability: 60%
[28]
  cell viability: 57.7%
[29]
  cell viability: 59.1%
[30]
  cell viability: 59.5%
[31]
  cell viability: 57.9%
[32]
  cell viability: 58.5%
[33]
  cell viability: 4.6%

## CC(C)OC(=O)C(C(=O)OC(C)C)=C1S\C=C/S1
[1]
  cell viability: 112%
[2]
  cell viability: 119%
[3]
  cell viability: 128%
[4]
  cell viability: 125%
[5]
  cell viability: 120%
[6]
  cell viability: 123%
[7]
  cell viability: 117%
[8]
  cell viability: 123%
[9]
  cell viability: 118%
[10]
  cell viability: 70.1%
[11]
  cell viability: 113%
[12]
  cell viability: 114%
[13]
  cell viability: 135%
[14]
  cell viability: 122%
[15]
  cell viability: 125%
[16]
  cell viability: 122%
[17]
  cell viability: 133%
[18]
  cell viability: 141%
[19]
  cell viability: 131%
[20]
  cell viability: 116%
[21]
  cell viability: 50.9%
[22]
  cell viability: 109%
